# In patent US12559464B2, “Quinazolinone dione compounds and uses thereof” (Edgewise Therapeutics, Inc., priority 2023, dated 2026):
# Columns and labels:
# [1] = system: myosin ATPase, Rabbit Psoas myofibrils; assay: Myofibril ATPase assay, rabbit psoas (skeletal) myofibrils; assay type: biochemical; conditions: Rabbit Psoas Prep pCa 25 GEOM_MEAN; for Rabbit Psoas EC25 (Y75 value): concentration required to reduce myosin ATP-ase activity by 25%
# [2] = system: myosin ATPase, Porcine Atria myofibrils; assay: Myofibril ATPase assay, porcine atria myofibrils; assay type: biochemical; conditions: concentration required to reduce myosin ATP-ase activity by 25%; Porcine Atria Prep pCa 25 GEOM_MEAN
# [3] = biological target: T1, myosin ATPase, Porcine Ventricle myofibrils (Sus scrofa, UniProt P79293); assay: Myofibril ATPase assay, porcine ventricle myofibrils; assay type: biochemical, porcine (Yucatan minipigs); conditions: concentration required to reduce myosin ATP-ase activity by 25%; Porcine Ventricle Prep pCa 25 GEOM_MEAN
# T1 construct: Myofibrils from porcine cardiac muscle was isolated from the left ventricle of Yucatan minipigs; tissue Exemplar Genetics; host or cells: left ventricle of Yucatan minipigs, myofibrils
# T1 sequence (P79293 whole entry): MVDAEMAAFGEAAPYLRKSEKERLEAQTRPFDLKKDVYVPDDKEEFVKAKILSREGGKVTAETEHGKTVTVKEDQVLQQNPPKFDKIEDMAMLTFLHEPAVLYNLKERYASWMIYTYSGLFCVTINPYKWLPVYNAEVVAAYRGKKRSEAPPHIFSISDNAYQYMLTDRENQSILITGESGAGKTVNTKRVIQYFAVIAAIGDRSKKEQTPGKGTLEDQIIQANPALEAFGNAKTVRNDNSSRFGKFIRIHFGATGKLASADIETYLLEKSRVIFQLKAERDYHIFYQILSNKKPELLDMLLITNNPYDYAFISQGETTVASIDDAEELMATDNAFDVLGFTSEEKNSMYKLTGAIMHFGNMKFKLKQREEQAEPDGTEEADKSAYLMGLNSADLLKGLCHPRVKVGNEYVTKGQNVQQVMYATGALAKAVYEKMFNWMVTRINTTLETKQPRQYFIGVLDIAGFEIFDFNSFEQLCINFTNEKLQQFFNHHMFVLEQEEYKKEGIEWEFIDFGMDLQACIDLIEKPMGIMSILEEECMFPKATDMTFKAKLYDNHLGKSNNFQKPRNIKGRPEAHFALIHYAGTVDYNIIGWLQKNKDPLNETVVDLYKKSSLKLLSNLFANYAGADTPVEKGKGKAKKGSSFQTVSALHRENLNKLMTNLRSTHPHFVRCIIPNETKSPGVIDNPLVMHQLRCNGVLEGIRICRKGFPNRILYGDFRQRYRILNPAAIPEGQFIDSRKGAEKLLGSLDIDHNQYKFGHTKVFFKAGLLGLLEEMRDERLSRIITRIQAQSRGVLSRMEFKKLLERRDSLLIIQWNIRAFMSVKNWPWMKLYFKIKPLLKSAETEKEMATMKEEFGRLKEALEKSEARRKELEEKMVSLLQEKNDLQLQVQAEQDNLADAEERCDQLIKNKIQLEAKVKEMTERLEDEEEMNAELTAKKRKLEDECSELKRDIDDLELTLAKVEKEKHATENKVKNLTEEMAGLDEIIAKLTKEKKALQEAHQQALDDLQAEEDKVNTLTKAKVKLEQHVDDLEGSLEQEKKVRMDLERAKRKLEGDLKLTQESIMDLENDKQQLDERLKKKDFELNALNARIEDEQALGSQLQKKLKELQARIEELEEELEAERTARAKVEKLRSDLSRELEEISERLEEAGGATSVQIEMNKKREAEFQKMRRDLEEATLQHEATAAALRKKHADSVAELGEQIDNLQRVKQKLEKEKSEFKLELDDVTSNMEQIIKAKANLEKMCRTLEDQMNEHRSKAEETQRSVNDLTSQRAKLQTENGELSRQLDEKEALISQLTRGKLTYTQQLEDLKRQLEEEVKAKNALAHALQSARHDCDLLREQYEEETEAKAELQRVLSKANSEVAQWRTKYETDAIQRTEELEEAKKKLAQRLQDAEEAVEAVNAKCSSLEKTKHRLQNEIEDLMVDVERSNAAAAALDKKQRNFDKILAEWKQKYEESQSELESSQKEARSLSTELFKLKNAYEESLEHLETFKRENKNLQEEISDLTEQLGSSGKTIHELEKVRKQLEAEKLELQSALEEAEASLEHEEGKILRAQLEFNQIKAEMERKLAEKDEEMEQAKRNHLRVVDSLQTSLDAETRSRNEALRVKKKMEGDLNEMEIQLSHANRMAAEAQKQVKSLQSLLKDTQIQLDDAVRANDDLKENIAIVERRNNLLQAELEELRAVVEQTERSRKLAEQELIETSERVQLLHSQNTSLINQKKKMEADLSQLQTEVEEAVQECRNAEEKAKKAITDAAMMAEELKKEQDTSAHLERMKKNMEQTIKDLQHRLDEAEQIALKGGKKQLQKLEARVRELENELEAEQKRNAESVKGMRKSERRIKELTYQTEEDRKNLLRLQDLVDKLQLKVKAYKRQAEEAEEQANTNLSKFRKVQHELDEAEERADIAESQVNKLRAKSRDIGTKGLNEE
# In short: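 Myofibrils from Yucatan minipig left ventricle; ADP production coupled via PK-LDH to NADH loss, read kinetically at 340 nm every 1.5–2 min for 75 min in PIPES/MgCl2 pH 7.0 buffer. Slopes normalized to vehicle and fit to 4-parameter logistic; values are concentrations giving 75% (inhibition) or 125% (activation) of vehicle activity.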
Rabbit Psoas EC25 (Y75 value) [1] [µM],Porcine Atria EC25 (Y75 value) [2] [µM],Porcine Ventricle EC25 (Y75 value) [3] [µM],Rabbit Psoas Y125 value (marked #) ([1]; concentration required to increase myosin ATP-ase activity by 25%),Compound
100,79.37,100,,"CC(NC(=O)Cn1c(=O)[nH]c2ccccc2c1=O)c1cccc(F)c1 (stereo not drawn) [Compound 519, 2-(2,4-dioxo-1,4-dihydroquinazolin-3(2H)-yl)-N-(1-(3-fluorophenyl)ethyl)acetamide]"
100,100,100,,"Cc1ccc(C(NC(=O)Cn2c(=O)[nH]c3ccccc3c2=O)c2ccccc2)cc1C (stereo not drawn) [Compound 516, N-((3,4-dimethylphenyl)(phenyl)methyl)-2-(2,4-dioxo-1,4-dihydroquinazolin-3(2H)-yl)acetamide]"
0.89,1.89,10.96,,"C[C@H](NC(=O)C1(n2c(=O)[nH]c3cccc(C#N)c3c2=O)CC1)c1ncc(C#N)cc1F (single isomer, unassigned) [Compound 3015]"
0.023,0.07,0.075,,"Cc1c(F)ccc2[nH]c(=O)n(CC(=O)N[C@@H]3COc4cc(C#N)cnc43)c(=O)c12 (single isomer, unassigned) [Compound 701]"
,20.67,43.467,3.28^#^ μM,"C[C@H](NC(=O)C(Cc1ccccc1)n1c(=O)[nH]c2ccccc2c1=O)c1ccc(F)cc1F (single isomer, unassigned) [Compound 504]"
0.799,2.095,7.141,,"Cc1nccc2[nH]c(=O)n(CC(=O)N[C@@H](C)c3ncc(C#N)cc3F)c(=O)c12 [Compound 20, (S)-N-(1-(5-cyano-3-fluoropyridin-2-yl)ethyl)-2-(5-methyl-2,4-dioxo-1,4-dihydropyrido[4,3-d]pyrimidin-3(2H)-yl)acetamide]"
1.66,1.799,0.615,,"C[C@@H](NC(=O)Cn1c(=O)[nH]c2ccc(F)c(F)c2c1=O)c1ncc(C#N)cc1F (single isomer, unassigned) [Compound 21]"
0.494,2.407,31.6,,"CC(NC(=O)Cn1c(=O)[nH]c2ccccc2c1=O)c1ccc(F)cc1F (stereo not drawn) [Compound 169, N-(1-(2,4-difluorophenyl)ethyl)-2-(2,4-dioxo-1,4-dihydroquinazolin-3(2H)-yl)acetamide]"
0.412,0.658,17.77,,"C[C@H](NC(=O)[C@@H](C)n1c(=O)[nH]c2ccc(F)c(F)c2c1=O)c1ccc(F)cc1F [Compound 37, (R)-2-(5,6-difluoro-2,4-dioxo-1,4-dihydroquinazolin-3(2H)-yl)-N-((S)-1-(2,4-difluorophenyl)ethyl)propanamide]"
7.437,8.617,100,,"C[C@H](NC(=O)Cn1c(=O)[nH]c2cccc(F)c2c1=O)c1ncc(C#N)cn1 (single isomer, unassigned) [Compound 202]"
100,100,100,,"COc1ccc([C@@H](C)NC(=O)Cn2c(=O)[nH]c3ccccc3c2=O)cc1 (single isomer, unassigned) [Compound 528]"
100,100,100,,"CC(NC(=O)Cn1c(=O)[nH]c2ccccc2c1=O)C1CCCC1 (stereo not drawn) [Compound 605, N-(1-cyclopentylethyl)-2-(2,4-dioxo-1,4-dihydroquinazolin-3(2H)-yl)acetamide]"
72.241,100,100,,"CC(NC(=O)Cn1c(=O)[nH]c2ccccc2c1=O)c1ccc(F)cn1 (stereo not drawn) [Compound 106, 2-(2,4-dioxo-1,4-dihydroquinazolin-3(2H)-yl)-N-(1-(5-fluoropyridin-2-yl)ethyl)acetamide]"
0.631,0.078,0.547,,"Cc1c(F)ccc2[nH]c(=O)n(CC(=O)N[C@@H]3CCc4cc(C#N)cnc43)c(=O)c12 (single isomer, unassigned) [Compound 9]"
100,100,100,,"C[C@H](NC(=O)[C@@H](CC1CC1)n1c(=O)[nH]c2ccccc2c1=O)c1ncc(F)cc1F (single isomer, unassigned) [Compound 212]"
100,100,100,,"C[C@H](NC(=O)C(c1ccccc1)n1c(=O)[nH]c2ccccc2c1=O)c1ccc(F)cc1F (single isomer, unassigned) [Compound 510]"
100,100,100,,"C[C@H](NC(=O)Cn1c(=O)[nH]c2ccccc2c1=O)c1cc(C(F)(F)F)cc(C(F)(F)F)c1 (single isomer, unassigned) [Compound 517]"
5.692,0.3543,1.467,,"C[C@@H](NC(=O)Cn1c(=O)[nH]c2ccc(F)cc2c1=O)c1ncc(C#N)cc1F (single isomer, unassigned) [Compound 7]"
21.6,15.77,100,,"Cc1nccc2[nH]c(=O)n(CC(=O)N[C@H](C)c3ncc(C#N)cc3F)c(=O)c12 (single isomer, unassigned) [Compound 19]"
100,100,100,,"CCC(C(=O)N[C@@H](C)c1ccc(F)cc1F)n1c(=O)[nH]c2ccccc2c1=O (single isomer, unassigned) [Compound 509]"
100,100,100,,"O=C(Cn1c(=O)[nH]c2ccccc2c1=O)NC(c1ccc(Cl)cc1)c1cccs1 (stereo not drawn) [Compound 515, N-((4-chlorophenyl)(thiophen-2-yl)methyl)-2-(2,4-dioxo-1,4-dihydroquinazolin-3(2H)-yl)acetamide]"
100,100,100,,"C[C@H](NC(=O)Cn1c(=O)[nH]c2ccnc(O)c2c1=O)c1ccc(F)cc1F [Compound 59, (S)-N-(1-(2,4-difluorophenyl)ethyl)-2-(5-hydroxy-2,4-dioxo-1,4-dihydropyrido[4,3-d]pyrimidin-3(2H)-yl)acetamide]"
100,100,100,,"C[C@@H](NC(=O)Cn1c(=O)[nH]c2ccccc2c1=O)c1ccc(Cl)cc1 (single isomer, unassigned) [Compound 526]"
84.531,100,50.21,,"C[C@H](NC(=O)[C@H](CC1CC1)n1c(=O)[nH]c2ccccc2c1=O)c1ccc(F)cc1F (single isomer, unassigned) [Compound 501]"
39.563,59.55,100,,"CC(C)C[C@H](C(=O)N[C@@H](C)c1ncc(F)cc1F)n1c(=O)[nH]c2ccccc2c1=O (single isomer, unassigned) [Compound 28]"
86.83,24.53,100,,"C[C@H](NC(=O)Cn1c(=O)[nH]c2ccc(F)cc2c1=O)c1ncc(C#N)cn1 (single isomer, unassigned) [Compound 2]"
100,100,100,,"CC(NC(=O)Cn1c(=O)[nH]c2ccccc2c1=O)c1ccncc1 (stereo not drawn) [Compound 213, 2-(2,4-dioxo-1,4-dihydroquinazolin-3(2H)-yl)-N-(1-(pyridin-4-yl)ethyl)acetamide]"
1.26,100,100,,"CC(c1ccc(F)cc1F)N(C)C(=O)Cn1c(=O)[nH]c2ccccc2c1=O (stereo not drawn) [Compound 521, N-(1-(2,4-difluorophenyl)ethyl)-2-(2,4-dioxo-1,4-dihydroquinazolin-3(2H)-yl)-N-methylacetamide]"
0.36,0.1046,1.526,,"Cc1cc(F)ccc1[C@H](C)NC(=O)Cn1c(=O)[nH]c2ccccc2c1=O (single isomer, unassigned) [Compound 503]"
0.043,0.048,0.119,,"Cc1cc(C#N)cnc1[C@@H](C)NC(=O)Cn1c(=O)[nH]c2ccc(F)c(F)c2c1=O (single isomer, unassigned) [Compound 13]"
